Common to all, as to assay: growth of human tumour cells (NCI), 48 h
In assay [1] the test system is A549 NSCLC.
In assay [2] the test system is BT-549 breast.
Assay [3] deals with CAKI-1 renal.
Assay [4] deals with HL-60(TB) leukemia.
The subject of assay [5] is K-562 leukemia.
Assay [6] deals with NCI-H460 lung.
Assay [7] has as its system SK-MEL-28 melanoma.
Assay [8] concerns SNB-19 CNS.
For assay [9], the system named is SW-620 colon.
The subject of assay [10] is TK-10 renal.

Several values for one entry are separate records, joined by “and”; a condition that tells them apart may be missing. Equal entries are not always repeated.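 A five-concentration, 48-hour dose response in 96-well plates underlies each endpoint, interpolated linearly between surrounding concentrations. GI50 marks 50% less growth. Definition used: TGI = concentration required for complete inhibition of growth.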

As to `CCCCCCCCCCNC(=O)CI`, the GI50 in [1] was 5.44 µM; in [2] it was 1.73 µM; in [3] it was 1.56 µM; in assay [4], 1.32 µM; in assay [5], 0.938 µM; in assay [6] it was 3.05 µM. For the same compound, the GI50 is 1.95 µM in [7], 11.2 µM in assay [8], 1.77 µM in [9] and 1.76 µM in assay [10]. The TGI was 21.9 µM in assay [1]; 3.35 µM in assay [2]; 3.55 µM in assay [3]; 3.12 µM in [4]; 3.95 µM in [5]; 9.66 µM in assay [6]. Further, the TGI was determined as 3.91 µM in assay [7], 23.9 µM in assay [8], 3.65 µM in assay [9] and 3.33 µM in assay [10].

For the compound `O=C(O)c1cccc(COc2ccc([N+](=O)[O-])cc2Cl)c1`, the GI50 is > 100 µM in [1]; 53.4 µM in assay [2]; > 100 µM in [3]; 58.5 µM in [4]; 37.2 µM in [5]; > 100 µM in assay [6]. Also, the GI50 is > 100 µM in [7], > 100 µM in assay [8], > 100 µM in assay [9] and 27.2 µM in assay [10]. Also, the TGI in assay [1], in assay [2], in assay [3], in assay [4], in [5] and in assay [6] was > 100 µM throughout. The TGI in [7], in assay [8], in assay [9] and in assay [10] was > 100 µM in each case.

Turning to `COc1ccc(-c2cnnn2-c2nonc2-n2cccc2)cc1`, the GI50 in assay [1] is 0.45 µM; in assay [2], 0.698 µM; in [3], 0.245 µM; in assay [4], 0.177 µM; in assay [5], 0.039 µM; in assay [6], 0.344 µM. Moreover, the GI50 in assay [7] is 0.52 µM; in assay [8] it was 0.722 µM; in assay [9], 0.149 µM; in assay [10], 2.12 µM. Besides, the TGI in [1] was > 44.8 µM; in [2], 34.6 µM; in assay [3], > 67.1 µM; in [4], 0.547 µM; in [5] it was > 100 µM; in assay [6], 11.6 µM. Further, the TGI in [7] was > 100 µM; in assay [8], > 100 µM; in assay [9], > 100 µM; in [10], > 61 µM.

Regarding `O=C1CCCN1c1ccccc1I(=O)=O`, the GI50 in [1], in [2], in [3], in assay [4], in assay [5] and in assay [6] was > 100 µM in each case. Besides, the GI50 in assay [7], in assay [8], in [9] and in assay [10] was > 100 µM throughout. The TGI in assay [1], in [2], in [3], in assay [4], in assay [5] and in [6] was > 100 µM each time. The TGI in assay [7], in assay [8], in [9] and in assay [10] was > 100 µM throughout.

Regarding `Cc1cc(N/N=C/c2ccccn2)nc2ccccc12`, the GI50 in assay [1] is 0.361 µM; in [2], 0.85 µM; in [3], 0.313 µM; in assay [4], 0.295 µM; in [5], 0.422 µM; in assay [6], 0.349 µM. In addition, the GI50 is 0.895 µM in assay [7], 0.535 µM in [8], 0.588 µM in assay [9] and 0.674 µM in assay [10]. In addition, the TGI in [1] was 12.3 µM; in [2] it was 20.3 µM; in assay [3], 2.59 µM; in [4], 0.804 µM; in [5], 7.55 µM; in assay [6], 11.6 µM. The TGI in assay [7] was determined as 16.8 µM; in assay [8], 26.3 µM; in assay [9] it was 19.6 µM; in [10] it was 20.6 µM.

Consider `OC(c1cc(-c2ccc(C(F)(F)F)cc2)nc(C(F)(F)F)c1)C1CCCCN1` (centres undefined), for which the GI50 in assay [1] was 1.84 µM and 2.05 µM; in assay [2], 1.7 µM; in assay [3], 1.48 µM; in [4], 1.43 µM; in assay [5], 1.2 µM and 1.91 µM; in assay [6] it was 1.81 µM. In addition, the GI50 in assay [7] is 1.83 µM and 2.55 µM; in [8], 1.53 µM and 5.66 µM; in [10] it was 1.72 µM and 2.16 µM. For the same compound, the TGI in [1] was 3.4 µM and 4.92 µM; in [2], 3.08 µM; in assay [3], 2.81 µM and 17.7 µM; in [4], 3.67 µM and 4.11 µM; in [5] it was 2.94 µM and 4.06 µM; in [6] it was 3.4 µM and 3.95 µM. In addition, the TGI in assay [7] was 3.27 µM and 5.97 µM; in assay [8], 2.92 µM and 13.5 µM; in [9] it was 3.33 µM and 3.36 µM; in [10], 3.23 µM and 4.95 µM.

Turning to `CC(C)CC(C/C=C1/CC(CO)(COC(=O)C(C)(C)C)OC1=O)CC(C)C` (centres undefined), the GI50 in assay [1] is 1.07 µM and 0.515 µM; in [3] it was 7.62 µM and 1.19 µM; in [4] it was 0.154 µM and 0.46 µM; in [7] it was 28.7 µM; in assay [10] it was 1.58 µM and 0.543 µM. In addition, the TGI in assay [1] was 16.1 µM and 11.2 µM; in assay [2] it was 24.6 µM and 31 µM; in assay [3], 21.5 µM and 9.68 µM; in assay [4], 16.9 µM and 16.7 µM; in assay [5], 27.4 µM and > 37.5 µM; in assay [6], 17.8 µM and 5.69 µM. Besides, the TGI in assay [7] was 44.7 µM and 20.8 µM; in assay [8], 23.4 µM and 18.5 µM; in [9] it was 19.4 µM and 22 µM; in assay [10] it was 15.7 µM and 1.97 µM.

Regarding `CN(C)CCNCCN`, the TGI in [1], in [2], in assay [3], in assay [4], in [5] and in assay [6] was > 100 µM in each case. Also, the TGI in assay [7], in assay [8], in [9] and in assay [10] was > 100 µM in each case.

As to `N[C@H](CCC(=O)N[C@@H](Cc1c[nH]c2ccccc12)C(=O)O)C(=O)O`, the GI50 in assay [1], in assay [2], in assay [3], in assay [4], in assay [5] and in assay [6] was > 100 µM each time. For the same compound, the GI50 in [7], in assay [8], in assay [9] and in [10] was > 100 µM throughout. Also, the TGI in assay [1], in assay [2], in assay [3], in assay [4], in assay [5] and in assay [6] was > 100 µM in each case. Besides, the TGI in assay [7], in assay [8], in assay [9] and in assay [10] was > 100 µM throughout.

As to `O=C(NCc1ccc(Cn2c(=O)sn(-c3ccccc3)c2=O)cc1)OCc1ccc2cccc(O)c2n1`, the GI50 in assay [1] was 1.51 µM; in assay [2], 0.732 µM; in assay [3], 0.479 µM; in assay [4], 1.24 µM; in assay [5] it was 0.403 µM; in assay [6], 1.41 µM. The GI50 was 1.34 µM in assay [7], 1.49 µM in assay [8], 0.301 µM in [9] and 0.571 µM in assay [10]. Besides, the TGI in [1] is 3.87 µM; in assay [2] it was 2.3 µM; in [3], 1.84 µM; in [4], > 20.5 µM; in assay [5] it was > 100 µM; in [6], 3.13 µM. Also, the TGI in assay [7] worked out at 2.64 µM; in [8], 2.84 µM; in assay [9], 0.951 µM; in assay [10] it was 1.62 µM.

`CC(C)(C)[Si](C)(C)OC1[C@@H](CNC(=O)NC(=O)CCl)O[C@@H](n2cnc3c(N)ncnc32)[C@H]1O[Si](C)(C)C(C)(C)C` (some centres undefined): the GI50 was 2.1 µM in assay [1]; 0.869 µM in assay [2]; 1.33 µM in assay [3]; 0.893 µM in [4]; 1.23 µM in assay [5]; 1.24 µM in [6]. For the same compound, the GI50 in [7] was 1.4 µM; in [8] it was 2.43 µM; in [9], 0.891 µM; in [10], 1.39 µM. For the same compound, the TGI in assay [1] is 7.72 µM; in assay [2] it was 1.73 µM; in assay [3] it was 3.89 µM; in assay [4], 1.87 µM; in [5], 3.41 µM; in assay [6] it was 3.21 µM. Also, the TGI amounted to 4.12 µM in assay [7], 9.46 µM in assay [8], 1.77 µM in [9] and 3.63 µM in assay [10].

As to `Nc1ccccc1O.O.O=C(O)C1[O][Sb][O]C1C(=O)O` (centres undefined), the GI50 is 54.7 µM in assay [1]; 14.9 µM in assay [2]; 3.78 µM in assay [3]; 1.86 µM in [4]; 3.77 µM in assay [5]; 21.6 µM in assay [6]. Also, the GI50 in [7] is 10.2 µM; in assay [8] it was 55.5 µM; in [9], 4.48 µM; in assay [10], 18 µM. The TGI in assay [1] is > 100 µM; in [2], 30.6 µM; in assay [3] it was 12.3 µM; in assay [4] it was 10.6 µM; in assay [5] it was > 36.1 µM; in assay [6] it was 58.5 µM. The TGI was 24.6 µM in assay [7], > 100 µM in assay [8], 31.2 µM in assay [9] and 32.4 µM in [10].

Source of the values: PubChem BioAssay (NCI).
